Where a name gives a salt, the structure may show the parent alone.
How the values were obtained:
[1] = molecular target: T1, 2,3-epoxysqualene-lanosterol-cyclase (Rattus norvegicus, UniProt P48450); assay: In-vivo activity in the rat after oral administration: 2,3-epoxysqualene level in the liver
T1 construct: The quantity of 2,3-epoxysqualene formed therefore serves as a direct measurement of the potency on the animal as a whole; from tissue; host or cells: living rat; 2,3-epoxysqualene measured in the liver
T1 sequence (P48450 1-733): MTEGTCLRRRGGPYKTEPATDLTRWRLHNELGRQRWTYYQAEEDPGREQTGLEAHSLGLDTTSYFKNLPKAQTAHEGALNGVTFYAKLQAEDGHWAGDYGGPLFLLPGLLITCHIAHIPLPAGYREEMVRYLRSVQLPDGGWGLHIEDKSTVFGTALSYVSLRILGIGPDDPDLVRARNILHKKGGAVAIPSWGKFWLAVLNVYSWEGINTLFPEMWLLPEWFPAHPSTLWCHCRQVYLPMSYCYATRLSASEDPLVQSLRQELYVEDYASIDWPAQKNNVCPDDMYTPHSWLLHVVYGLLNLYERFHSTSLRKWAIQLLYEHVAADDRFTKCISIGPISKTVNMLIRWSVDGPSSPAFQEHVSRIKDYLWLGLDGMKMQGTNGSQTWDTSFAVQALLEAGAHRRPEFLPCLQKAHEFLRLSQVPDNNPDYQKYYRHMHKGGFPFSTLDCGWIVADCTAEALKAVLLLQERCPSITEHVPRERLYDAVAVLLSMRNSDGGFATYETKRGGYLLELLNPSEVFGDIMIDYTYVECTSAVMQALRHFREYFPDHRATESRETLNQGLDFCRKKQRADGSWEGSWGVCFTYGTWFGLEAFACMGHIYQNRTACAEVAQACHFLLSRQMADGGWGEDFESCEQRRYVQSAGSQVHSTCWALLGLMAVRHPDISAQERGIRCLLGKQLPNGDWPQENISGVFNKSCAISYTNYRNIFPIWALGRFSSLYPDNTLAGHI
Method: II. Measuring the In-vivo Activity in the Rat after Oral Administration
Inhibiting the enzyme 2,3-epoxysqualene-lanosterol-cyclase causes an increase in the 2,3-epoxisqualene levels in the liver and plasma. The quantity of 2,3-epoxysqualene formed therefore serves as a direct measurement of the potency on the animal as a whole. The amounts were determined using the method described in J. Lipid. Res. 38, 564-575, [1997] after t=3 or 8 hours after administration of the substance in concentrations of c=0.01, 0.03, 0.1, 0.3 and 1.0 mg/kg. Table 3 which follows gives the results obtained for the abovementioned substances A, B, C, D, E, G, H, I and K by way of example.
In the control animals there were no measurable 2,3-epoxisqualene levels under these conditions.

[2] = test system: ^14C-acetate incorporation into the steroids which can be precipitated with digitonin; assay: Inhibition of 14C-acetate incorporation into the steroids which can be precipitated with digitonin; format: cell-based; settings: for inhibition at 0.01 µM / inhibition at 0.001 µM: read-out: percentage by which the compound inhibits the 14C-acetate incorporation
Method: I. Measuring the Inhibition of ^14C-acetate Incorporation into the Steroids which can be Precipitated with Digitonin
The inhibitory effect was investigated using the method described in J. Lipid. Res. 37, 148-157 [1996] at test concentrations of 10^−8 and 10^−9 mol/l.
The IC50 values of compounds H, I, K and M were determined.

[3] = test system: normolipaemic golden hamster; assay: Lipid reduction in the normolipaemic golden hamster; format: in vivo; settings: compared with control group
Method: III. Lipid Reduction in the Normolipaemic Golden Hamster This was determined using the method described in J. Lipid. Res. 38, 564-575, (1997). At the end of the experiment the total cholesterol, β-lipoprotein-cholesterol and HDL-cholesterol were determined and compared with the values of a control group which were fed without any test substance. The lipid-lowering activity of the abovementioned compound H was tested.

In the case of CN(C)Cc1ccc(SC2CCN(C(=O)Oc3ccccc3)CC2)cc1.Cl, the melting point is reported as 161 °C.
In the case of CN(C)Cc1ccc(SC2CCN(C(=S)SCc3ccccc3)CC2)cc1.Cl [(A), N-(benzylthio)thiocarbonyl-4-[4-(dimethylaminomethyl)phenylthio]piperidine-hydrochloride], the “2,3-epoxysqualene concentration in the liver (rat)” value (from here on “2,3-epoxysqualene concentration”) ([1]; c=0.3 mg/kg, t=3 h) is reported as 2.0 µg/g, the “2,3-epoxysqualene concentration” value ([1]; c=0.3 mg/kg, t=8 h) is reported as 1.2 µg/g and the “2,3-epoxysqualene concentration” value ([1]; c=1.0 mg/kg, t=3 h) is reported as 9.3 µg/g. For the same compound, the “2,3-epoxysqualene concentration” value ([1]; c=1.0 mg/kg, t=8 h) was 9.8 µg/g, the inhibition at 0.01 µM ([2]; test concentration 10^−8 mol/l) was 85% and the inhibition at 0.001 µM ([2]; test concentration 10^−9 mol/l) was 53%.
In the case of CN(C)Cc1ccc(C(=O)C2CCN(C(=S)SCc3ccccc3)CC2)cc1.Cl [(B), N-(benzylthio)thiocarbonyl-4-[4-(dimethylaminomethyl)benzoyl]piperidine-hydrochloride], the “2,3-epoxysqualene concentration” value ([1]; c=0.3 mg/kg, t=3 h) is reported as 4.5 µg/g, the “2,3-epoxysqualene concentration” value ([1]; c=0.3 mg/kg, t=8 h) is reported as 5.8 µg/g and the “2,3-epoxysqualene concentration” value ([1]; c=1.0 mg/kg, t=3 h) is reported as 39.2 µg/g. The “2,3-epoxysqualene concentration” value ([1]; c=1.0 mg/kg, t=8 h) was 42.0 µg/g, the inhibition at 0.01 µM ([2]; test concentration 10^−8 mol/l) was 85% and the inhibition at 0.001 µM ([2]; test concentration 10^−9 mol/l) was 47%.
In the case of CN(C)Cc1ccc(SC2CCN(C(=O)OCc3ccccc3)CC2)cc1.Cl [(C), N-benzyloxycarbonyl-4-[4-(dimethylaminomethyl)phenylthio]piperidine-hydrochloride], the “2,3-epoxysqualene concentration” value ([1]; c=0.01 mg/kg, t=3 h) is reported as 0.6 µg/g, the “2,3-epoxysqualene concentration” value ([1]; c=0.01 mg/kg, t=8 h) is reported as 3.0 µg/g and the “2,3-epoxysqualene concentration” value ([1]; c=0.1 mg/kg, t=3 h) is reported as 0.5 µg/g. For the same compound, the “2,3-epoxysqualene concentration” value ([1]; c=0.1 mg/kg, t=8 h) was 1.3 µg/g, the “2,3-epoxysqualene concentration” value ([1]; c=0.3 mg/kg, t=3 h) was 0.5 µg/g and the “2,3-epoxysqualene concentration” value ([1]; c=0.3 mg/kg, t=8 h) was 1.8 µg/g. For the same compound, the “2,3-epoxysqualene concentration” value ([1]; c=1.0 mg/kg, t=3 h) was 3.8 µg/g, the “2,3-epoxysqualene concentration” value ([1]; c=1.0 mg/kg, t=8 h) was 2.0 µg/g and the inhibition at 0.01 µM ([2]; test concentration 10^−8 mol/l) was 78%. It also gave an inhibition at 0.001 µM ([2]; test concentration 10^−9 mol/l) of 57%.
In the case of CN(C)Cc1ccc(SC2CCN(C(=O)Oc3ccc(Cl)cc3)CC2)cc1.Cl [(D), N-(4-chlorophenoxy)carbonyl-4-[4-(dimethylaminomethyl)phenylthio]piperidine-hydrochloride], the “2,3-epoxysqualene concentration” value ([1]; c=0.01 mg/kg, t=3 h) is reported as 1.3 µg/g, the “2,3-epoxysqualene concentration” value ([1]; c=0.01 mg/kg, t=8 h) is reported as 1.0 µg/g and the “2,3-epoxysqualene concentration” value ([1]; c=0.1 mg/kg, t=3 h) is reported as 1.4 µg/g. For the same compound, the “2,3-epoxysqualene concentration” value ([1]; c=0.1 mg/kg, t=8 h) was 1.8 µg/g, the inhibition at 0.01 µM ([2]; test concentration 10^−8 mol/l) was 86% and the inhibition at 0.001 µM ([2]; test concentration 10^−9 mol/l) was 55%.
In the case of CN(C)Cc1ccc(CC2CCN(C(=S)SCc3ccccc3)CC2)cc1.Cl [(E), N-(benzylthio)thiocarbonyl-4-[4-(dimethylaminomethyl)benzyl]piperidine-hydrochloride], the “2,3-epoxysqualene concentration” value ([1]; c=0.01 mg/kg, t=3 h) is reported as 0.9 µg/g, the “2,3-epoxysqualene concentration” value ([1]; c=0.01 mg/kg, t=8 h) is reported as 1.0 µg/g and the “2,3-epoxysqualene concentration” value ([1]; c=0.1 mg/kg, t=3 h) is reported as 5.6 µg/g. The “2,3-epoxysqualene concentration” value ([1]; c=0.1 mg/kg, t=8 h) was 4.4 µg/g, the inhibition at 0.01 µM ([2]; test concentration 10^−8 mol/l) was 87% and the inhibition at 0.001 µM ([2]; test concentration 10^−9 mol/l) was 47%.
CN(C)Cc1ccc(C=C2CCN(C(=S)SCc3ccccc3)CC2)cc1 [(F), N-(benzylthio)thiocarbonyl-4-[4-(dimethylaminomethyl)benzyliden]piperidine-hydrochloride] showed an inhibition at 0.01 µM ([2]; test concentration 10^−8 mol/l) of 84% and an inhibition at 0.001 µM ([2]; test concentration 10^−9 mol/l) of 45%.
With CN(C)Cc1ccc(CC2CCN(C(=S)Oc3ccc(Cl)cc3)CC2)cc1.Cl [(G), N-(4-chlorophenoxy)thiocarbonyl-4-[4-(dimethylaminomethyl)benzyl]piperidine-hydrochloride] the “2,3-epoxysqualene concentration” value ([1]; c=0.1 mg/kg, t=3 h) was 10.3 µg/g, the “2,3-epoxysqualene concentration” value ([1]; c=0.1 mg/kg, t=8 h) was 11.5 µg/g and the “2,3-epoxysqualene concentration” value ([1]; c=1.0 mg/kg, t=3 h) was 87.4 µg/g. The “2,3-epoxysqualene concentration” value ([1]; c=1.0 mg/kg, t=8 h) was 134.2 µg/g, the inhibition at 0.01 µM ([2]; test concentration 10^−8 mol/l) was 83% and the inhibition at 0.001 µM ([2]; test concentration 10^−9 mol/l) was 56%.
With CN(C)Cc1ccc(CC2CCN(C(=O)Oc3ccc(Cl)cc3)CC2)cc1.Cl [(H), N-(4-chlorophenoxy)carbonyl-4-[4-(dimethylaminomethyl)benzyl]piperidine-hydrochloride] the “2,3-epoxysqualene concentration” value ([1]; c=0.1 mg/kg, t=3 h) was 1.0 µg/g, the “2,3-epoxysqualene concentration” value ([1]; c=0.1 mg/kg, t=8 h) was 0.8 µg/g and the “2,3-epoxysqualene concentration” value ([1]; c=1.0 mg/kg, t=3 h) was 56.3 µg/g. For the same compound, the “2,3-epoxysqualene concentration” value ([1]; c=1.0 mg/kg, t=8 h) was 20.7 µg/g, the HDL-cholesterol ([3]; dose 6.5 mg/kg/day) was −3.4% and the Total cholesterol ([3]; dose 6.5 mg/kg/day) was −8.3%. The β-Lipoprotein-cholesterol ([3]; dose 6.5 mg/kg/day) was −13.0%, the HDL-cholesterol ([3]; dose 19.9 mg/kg/day) was −8.2% and the Total cholesterol ([3]; dose 19.9 mg/kg/day) was −11.0%. For the same compound, the β-Lipoprotein-cholesterol ([3]; dose 19.9 mg/kg/day) was −13.2%, the HDL-cholesterol ([3]; dose 62.3 mg/kg/day) was −28.5% and the Total cholesterol ([3]; dose 62.3 mg/kg/day) was −32.1%. The β-Lipoprotein-cholesterol ([3]; dose 62.3 mg/kg/day) was −33.7%, the IC50 [2] was 0.8 nM and the inhibition at 0.01 µM ([2]; test concentration 10^−8 mol/l) was 80%. The inhibition at 0.001 µM ([2]; test concentration 10^−9 mol/l) was 45%.
In the case of CN(C)Cc1ccc(CC2CCN(C(=O)OCc3ccccc3)CC2)cc1.Cl [(I), N-benzyloxycarbonyl-4-[4-(dimethylaminomethyl)benzyl]piperidine-hydrochloride], the “2,3-epoxysqualene concentration” value ([1]; c=0.1 mg/kg, t=3 h) is reported as 1.0 µg/g, the “2,3-epoxysqualene concentration” value ([1]; c=1.0 mg/kg, t=3 h) is reported as 26.1 µg/g and the “2,3-epoxysqualene concentration” value ([1]; c=1.0 mg/kg, t=8 h) is reported as 10.0 µg/g. The IC50 [2] was 1.2 nM, the inhibition at 0.01 µM ([2]; test concentration 10^−8 mol/l) was 85% and the inhibition at 0.001 µM ([2]; test concentration 10^−9 mol/l) was 47%.
With Cc1ccc(OC(=O)N2CCC(Cc3ccc(CN(C)C)cc3)CC2)cc1.Cl [(K), 4-[4-(dimethylaminomethyl)benzyl]-N-(4-methylphenoxy)carbonylpiperidine-hydrochloride] the “2,3-epoxysqualene concentration” value ([1]; c=0.1 mg/kg, t=3 h) was 0.4 µg/g, the “2,3-epoxysqualene concentration” value ([1]; c=0.1 mg/kg, t=8 h) was 0.4 µg/g and the “2,3-epoxysqualene concentration” value ([1]; c=1.0 mg/kg, t=3 h) was 24.0 µg/g. For the same compound, the “2,3-epoxysqualene concentration” value ([1]; c=1.0 mg/kg, t=8 h) was 5.5 µg/g, the HDL-cholesterol ([3]; dose 54.2 mg/kg/day) was 2.3% and the Total cholesterol ([3]; dose 54.2 mg/kg/day) was −6.8%. The β-Lipoprotein-cholesterol ([3]; dose 54.2 mg/kg/day) was −21.2%, the IC50 [2] was 1.4 nM and the inhibition at 0.01 µM ([2]; test concentration 10^−8 mol/l) was 82%. The inhibition at 0.001 µM ([2]; test concentration 10^−9 mol/l) was 49%.
Work on Cc1ccc(OC(=S)N2CCC(Cc3ccc(CN(C)C)cc3)CC2)cc1 [(L), 4-[4-(dimethylaminomethyl)benzyl]-N-(4-methylphenoxy)thiocarbonylpiperidine-hydrochloride] yielded an inhibition at 0.01 µM ([2]; test concentration 10^−8 mol/l) of 88% and an inhibition at 0.001 µM ([2]; test concentration 10^−9 mol/l) of 64%.
Compound CN(C)Cc1ccc(CC2CCN(C(=O)Oc3ccc(F)cc3)CC2)cc1.Cl [(M), 4-[4-(dimethylaminomethyl)benzyl]-N-(4-fluorphenoxy)carbonylpiperidine-hydrochloride] has an HDL-cholesterol ([3]; dose 57.5 mg/kg/day) of −20.4%, a Total cholesterol ([3]; dose 57.5 mg/kg/day) of −26.8% and a β-Lipoprotein-cholesterol ([3]; dose 57.5 mg/kg/day) of −31.6%. The IC50 [2] was 1.5 nM, the “percentage by which the compound inhibits the 14C-acetate incorporation” value ([2]; test concentration 10^−8 mol/l) was −84% and the “percentage by which the compound inhibits the 14C-acetate incorporation” value ([2]; test concentration 10^−9 mol/l) was −59%.
For CN(C)Cc1ccc([C@H]2CC[C@H](N(C)C(=O)c3ccc(Cl)cc3)CC2)cc1 [(V), reference compound], the IC50 [2] was 3.8 nM, the “percentage by which the compound inhibits the 14C-acetate incorporation” value ([2]; test concentration 10^−8 mol/l) was −59% and the “percentage by which the compound inhibits the 14C-acetate incorporation” value ([2]; test concentration 10^−9 mol/l) was −23%.
Cc1ccc(CC(=O)O[C@H]2CC[C@H](c3ccc(CN(C)C)cc3)CC2)cc1 [(W), trans-O-(p-tolylacetyl)-4-(4-dimethylaminomethylphenyl)cyclohexanol, reference compound] gave an IC50 [2] of 9.6 nM, an inhibition at 0.01 µM ([2]; test concentration 10^−8 mol/l) of 72% and an inhibition at 0.001 µM ([2]; test concentration 10^−9 mol/l) of 21%.
